Results on three compounds are retold here after US4017540A, “Method of use, composition, and compounds” (The Upjohn Company, priority 1972, dated 1977).

Each structure is given as a SMILES string. “Also recorded” adds a separate entry of the source.

In assay [1] the test system is parasitic worms. Put plainly: anthelmintic activity (general; sheep). Particulars: in vivo.
Assay [2] has as its system insects and mites. Put plainly: insecticidal and miticidal activity (general). Particulars: in vivo.

Regarding `ClC(=NNc1ccccc1)c1ccccc1` [benzoyl chloride phenylhydrazone], in assay [1], the anthelmintic activity entry is reported as “effective against worms; also recorded: efficacious anthelmintic agents”.

With `O=[N+]([O-])c1ccc(NN=C(Cl)c2ccccc2)c([N+](=O)[O-])c1` [Benzoyl chloride (2,4-dinitrophenyl)hydrazone, reference compound], the “insecticidal and miticidal activity” value in assay [2] was “relatively inactive”.

On to `Fc1c(F)c(F)c(C(Cl)=NNc2ccccc2)c(F)c1F` [pentafluorobenzoyl chloride phenylhydrazone], for which the “insecticidal and miticidal activity” value in assay [2] was “outstanding insecticidal and miticidal agent”.
